Data: patent publication US8263664B2, “pH-sensitive polymeric micelles for drug delivery” (priority 2002, dated 2012)

Key:
[1] = test system: human breast MCF-7/DOX^R carcinoma xenografts; assay: Growth inhibition of human breast carcinoma (MCF-7/DOX^R) xenografts; assay type: in vivo; settings: 10 mg/kg DOX equivalent i.v. days 0, 3 and 6
Method: Tumor volume was calculated using a formula, tumor volume=0.52×length×width×height. Dimensions were measured with an electronic digital caliper. Two to three weeks after inoculation (tumor volume 150-200 mm^3) in vivo antitumor studies were performed. Saline (control), free DOX, or DOX-loaded micelles in aqueous saline solution were injected intravenously through a tail vein by 1-3 bolus injections at three day intervals. The injection volume (approximately 0.1 mL/10 g body weight) of micelle preparation was adjusted to give 10 mg DOX/kg body weight. Five to eight mice per study were used. Tumor volume and body weight were monitored with elapsed time. A mean standard error was calculated for each experimental point.
For the preparation of doxorubicin-loaded micelles, doxorubicin.HCl (DOX.HCl, Sigma Chemical Co., St. Louis, Mo.) was desalted by stirring overnight in the presence of two molar equivalents of triethylamine (Sigma Chemical Co.) in DMSO (Sigma Chemical Co.). […] The amount of entrapped DOX was determined by measuring UV absorbance at 481 nm of the drug after dissolving micelles in DMSO. […]

A2780/DOX^R tumor = test system: A2780/DOX^R tumor; design: species or system nude mice; settings: mouse, in vivo, iv
Method: To directly explore the extent of drug extravasation from the blood vessels and accumulation of DOX in the tumor, the time-dependent fluorescence intensity of DOX in the tumor sight was measured using a non-invasive skin fold window chamber model, which allows real-time measurements. To investigate the in situ delivery of polymeric micelles to solid tumors, a non-invasive visualization method using a “dorsal skin-fold window chamber model” was used. M. R. Dreher et al., Tumor vascular permeability, accumulation, and penetration of macromolecular drug carriers, 98 J. Nat'l Cancer Inst. 335-344 (2006). To establish the window chamber model, S. Shan et al., A novel rodent mammary window of orthotic breast cancer for intravital microscopy, 65 Microvasc. Res. 109-117 (2003), a flap of skin measuring 1 cm in diameter was dissected away from opposing surfaces of the dorsal skin flap of an anesthetized mouse, leaving a facial plane with its associated vasculature. The flaps were held vertically away from the body with a titanium saddle, which was sutured to both sides of the flap. […] DOX was incorporated into the polymeric micellar core, and DOX fluorescence imaging was captured in the skin dorsal window. […] Observation was made using intravital fluorescence microscopy (Olympus BX51WI Microscope, Leeds Precision Instruments, Inc., Minnesota) over time.

MCF-7/DOX^R cells = assay: MTT cytotoxicity against DOX-resistant MCF-7/DOX^R cells; settings: 48 hrs incubation, pH 8.0-6.8
Method: DOX-resistant MCF-7 cells (MCF-7/DOX^R) were selected from MCF-7 cells (Korean Cell Line Bank (KCLB)) that were stepwise exposed at 0.001-10 mg/mL of free DOX. Here, cells were maintained in RPMI-1640 (Gibco, Uxbridge, UK) medium with 2 mM L-glutamine, 5% penicillin-streptomycin, and 10% fetal bovine serum in a humidified incubator 37° C. and 5% CO2 atmosphere.
For the cytotoxicity test of free DOX or drug-loaded polymeric micelles against sensitive MCF-7 or MCF-7/DOX^R cells, cells (5×10^4 cells/mL) growing as a monolayer, were seeded at 96-well dish in 200 mL of RPMI 1640 medium before 24 hrs. Free DOX or DOX loaded micelles in RPMI 1640 medium with pH 7.4 or 6.8 were prepared immediately before use as described above, added to medium-removed 96-well dish with different DOX concentration, and incubated for 48 hrs. Chemosensitivity was assessed using the tetrazolium salt MTT (Sigma Chemical Co.). Then, 100 mL of PBS pH 7.4 containing 20 mL of MTT (500 mg/L) solution was added to each well. The plates were incubated for an additional 4 hrs, and then 100 mL of DMSO was added to each well. The absorbance of each well was read on a microplate reader using a test wavelength of 570 nm and a reference wavelength 630 nm.

In the case of `COc1cccc2c1C(=O)c1c(O)c3c(c(O)c1C2=O)C[C@@](O)(C(=O)CO)C[C@@H]3O[C@H]1C[C@H](N)[C@H](O)[C@H](C)O1` [free DOX, doxorubicin], the body weight change [1] is reported as “more weight loss”, the “course of DOX fluorescence intensity in the tumor” value (A2780/DOX^R tumor) is reported as “declined after 20 min and became dark at 60 min” and the “time at which DOX fluorescence intensity in tumor started to appear” value (A2780/DOX^R tumor) is reported as at most 7 min. The “cytotoxicity against MCF-7/DOX^R cells” value (MCF-7/DOX^R cells) was “little reduced”.
